PMC8622623, “Histamine H3 Receptor Ligands—KSK-59 and KSK-73—Reduce Body Weight Gain in a Rat Model of Excessive Eating” (Pharmaceuticals, 2021)
Where two headings read alike, the source gives them in different places.

Experiments:
H3 histamine receptor = target: T1, H3 histamine receptor (Homo sapiens, UniProt Q9Y5N1); assay: Lance cAMP intrinsic activity assay (antagonist dose-response); type: cell-based
T1 construct: host or cells: recombinant frozen ready-to-use cells
Description: Intrinsic activity studies were performed by two methods, Aequoscreen and Lance cAMP assays according to the manufacturer of the ready to use cells with stable expression of the H3 histamine receptor (Perkin Elmer, Waltham, MA, USA).
The LANCE Ultra cAMP assay as a homogeneous time-resolved fluorescence resonance energy transfer (TR-FRET) immunoassay is designed to measure cAMP produced upon modulation of adenylyl cyclase activity by GPCRs. The assay is based on the competition between the europium (Eu) chelate-labeled cAMP tracer and sample cAMP for binding sites on cAMP-specific monoclonal antibodies labeled with the ULight dye.
For measurement cells (frozen, ready to use) were thawed and resuspended in 4 mL of HBSS 1X. Then cells suspension was placed in a 15 mL Falcon tube and centrifuged for 10 min at 275× g. Pellet was resuspended in 1.5 mL HBSS 1X to determine cells concentration, and after next centrifugation cells were resuspended in stimulation buffer at appropriate concentration. […] Cell stimulation was performed for 30 min at RT°, and the agonist and antagonists were added simultaneously.

in vitro = details: PAMPA, pH 7.4
Description: The reference compounds, well-permeable caffeine and low-permeable norfloxacin were obtained from Sigma-Aldrich (St. Louis, MO, USA). Used for this study, pre-coated PAMPA Plate System Gentest™ was provided by Corning (Tewksbury, MA, USA). The system consisted of 96-well receiver filter plate pre-coated with structured layers of phospholipids and a donor microplate. The assay was performed as described previously. […] After 5 h of incubation at RT° the UPLC-MS spectrometry (Waters ACQUITY™ TQD system with the TQ Detector, Waters, Milford, MA, USA) method was used to estimate the quantity of compounds that penetrated from donor to acceptor wells. The permeability coefficients (Pe, cm/s) were calculated using the formulas provided by Corning.

[1] = system: non-obese rats fed palatable diet; assay: Spontaneous activity (RFID TraffiCage); type: in vivo, female Wistar rats; details: KSK compounds 10 mg/kg, vs control fed palatable diet; for spontaneous activity after chronic administration: 27th day, i.p.; for spontaneous activity after first administration: day 1, i.p.
Description: The spontaneous activity of rats was measured on the 1st and 27th day of the treatment with a special RFID-system—TraffiCage (TSE-Systems, Germany). The animals were subcutaneously implanted with transmitter identification (RFID), which enabled the presence and time spent in different areas of the cage to be counted and then the data were grouped in a special computer program.

[2] = Pharmacokinetics after single i.p. administration; type: in vivo; details: single i.p. 10 mg/kg; for AUC(0-inf) / Cmax / Tmax / CL/F / MRT / k el / Vd/F / half-life: ip; for AUC(0-inf): heading: AUC0-inf; for CL/F: read-out: CLS/F (clearance) (converted); for MRT: read-out: MRT (mean residence time); for k el: read-out: λz (terminal elimination rate constant) (converted); for Vd/F / half-life: rat, plasma; for Vd/F: n = 3, read-out: Vz/F (volume of distribution); for half-life: n = 3, read-out: t0.5λz (half-life) (converted)
Description: Six rats divided into two experimental groups were used in pharmacokinetic experiments. Three days before the experiment, rats’ jugular vein was cannulated allowing for the multiple blood sampling from the single animal. Investigated compounds suspended in 1% Tween 80 were administered i.p. at the single dose of 10 mg/kg. Blood samples (approximately 300 µL) were collected to Eppendorf tubes containing heparin at 5, 15, 30, 60, 120, 240 and 360 min after dosing. Plasma was harvested by centrifuging at 5000× g for 10 min and stored at −30 °C until bioanalysis.
Plasma concentrations of KSK-59 or KSK-73 were measured by liquid chromatography tandem mass spectrometry (LC-MS/MS) method. Samples (50 μL) were deproteinized at the ratio of 1:3 (v/v) with acetonitrile containing an internal standard (IS—pentoxifiline), briefly vortexed and then centrifuged for 10 min at the speed of 8000× g (Eppendorf miniSpin centrifuge). The supernatant was transferred into the autosampler vials and a sample volume of 10 μL was injected into LC-MS/MS system.
Chromatographic separation was carried out on XBridge™ C18 (3 × 50 mm, 5 µm, Waters, Dublin, Ireland) analytical column using the HPLC system Agilent 1100 (Agilent Technologies, Waldbronn, Germany). The mobile phase containing 0.1% formic acid in acetonitrile and in water was run at 0.3 mL/min in the gradient mode. Mass spectrometric detection was performed on an Applied Biosystems MDS Sciex (Concord, ON, Canada) API 2000 triple quadrupole mass spectrometer. Electrospray ionization (ESI) in the positive ion mode was used for ion production. The tandem mass spectrometer was operated at unit resolution in the selected reaction monitoring mode (SRM), monitoring the transitions of the protonated molecular ions m/z 382 to 107 for KSK-59, m/z 410 to 107 for KSK-73 and m/z 279 to 181 for IS. Data acquisition and processing were accomplished using the Applied Biosystems Analyst version 1.6 software. The calibration curves were constructed by plotting the ratio of the peak area of the studied compound to IS versus drug concentration and generated by weighted (1/x·x) linear regression analysis. The validated quantitation ranges were from 1 to 2000 ng/mL. Calculated accuracy and precision were within the ranges proposed by guidelines for bioanalytical methods validation (FDA, EMA). No significant matrix effect was observed and there were no stability related problems during the routine analysis of the samples.
Pharmacokinetic parameters were calculated by employing a non-compartmental approach, using Monolix version 2019R1 (Antony, France: Lixoft SAS, 2019) software. The area under the mean plasma concentration versus time curve extrapolated to infinity (AUC0-inf) was estimated using the log/linear trapezoidal rule. AUMC0-inf was estimated by calculation of total area under the first-moment curve by combining trapezoid calculation of AUMC0-t and extrapolated area. The mean residence time (MRT) was calculated from AUMC0-inf/AUC0-inf. The terminal rate constant (λz) was calculated by log-linear regression of the drug concentration data in the terminal phase and the terminal half-life (t1/2) were calculated as 0.693/λz. The clearance (CL/F) was estimated from the administered dose divided by AUC0-inf. The apparent volume of distribution during terminal phase (Vz/F) was calculated from (CL/F)/λz.

[3] = parameters: method as in PMID 31362197; details: PAMPA, published previously ref 17; cited from earlier work
[4] = antagonist dose-response with reference agonist (R)-alpha-methylhistamine at EC80, read-out: Lance cAMP IC50
[5] = text summary over both methods (Lance cAMP and Aequoscreen), read-out: IC50 value

T1 sequence (Q9Y5N1 whole entry): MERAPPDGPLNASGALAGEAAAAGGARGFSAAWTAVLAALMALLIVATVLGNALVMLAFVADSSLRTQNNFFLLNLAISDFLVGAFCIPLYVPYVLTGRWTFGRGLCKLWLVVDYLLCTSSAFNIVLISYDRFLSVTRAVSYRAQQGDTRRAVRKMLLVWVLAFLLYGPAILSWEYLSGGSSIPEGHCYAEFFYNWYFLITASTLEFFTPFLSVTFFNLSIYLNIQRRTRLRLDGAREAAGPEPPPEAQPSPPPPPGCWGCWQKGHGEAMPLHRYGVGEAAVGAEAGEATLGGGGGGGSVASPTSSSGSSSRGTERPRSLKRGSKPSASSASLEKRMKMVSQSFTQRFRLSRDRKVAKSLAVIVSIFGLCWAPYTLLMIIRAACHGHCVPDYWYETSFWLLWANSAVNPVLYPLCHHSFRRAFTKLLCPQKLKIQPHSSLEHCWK

| Structure (SMILES) | IC50 (H3 histamine receptor; [4]) [nM] | IC50 (H3 histamine receptor; [5]) [nM] | Papp at 5 h, 200 µM (in vitro) [×10⁻⁶ cm/s] | spontaneous activity after chronic administration [1] | spontaneous activity after first administration [1] | AUC(0-inf) ([2]; 10 mg/kg, rat plasma, n = 3) [ng·h/mL] | Cmax ([2]; rat plasma, n = 3) [ng/mL] | Tmax ([2]; rat plasma, n = 3) [min] | CL/F ([2]; rat plasma, n = 3) [mL/min/kg] | MRT ([2]; rat plasma, n = 3) [h] | k el ([2]; rat plasma, n = 3) [s⁻¹] | time at which Cmax was reached (first sampling point) ([2]; rat plasma) [min] | Vz/F (volume of distribution) ([2]; rat plasma, n = 3, 10 mg/kg) [L/kg] | t0.5λz (half-life) ([2]; rat plasma, n = 3, 10 mg/kg) [h] | Vd/F ([2]; 10 mg/kg) [L/kg] | half-life ([2]; 10 mg/kg) [h] | Pe (permeability coefficient) ± SD [3] |
| --- | --- | --- | --- | --- | --- | --- | --- | --- | --- | --- | --- | --- | --- | --- | --- | --- | --- |
| CC(=O)c1ccc(OCCCCCCN2CCN(c3ccncc3)CC2)cc1.O=C(O)C(=O)O [KSK-59, 1-(4-((6-(4-(pyridin-4-yl)piperazin-1-yl)hexyl)oxy)phenyl)ethan-1-one oxalate] | 3.79 ± 0.4 | ~3 | 4.35 ± 0.93 | did not affect spontaneous activity | did not affect spontaneous activity | 538 | 96 | 4.98 | 1120 | 2.04 | 0.000122 | 5 | 152.22 | 1.58 | 152 | 1.6 |  |
| CC(=O)c1ccc(OCCCCCCCCN2CCN(c3ccncc3)CC2)cc1.O=C(O)C(=O)O [KSK-73, 1-(4-((8-(4-(pyridin-4-yl)piperazin-1-yl)octyl)oxy)phenyl)ethan-1-one oxalate] | 10.5 ± 1.5 | 10 to 20 |  | no such changes were observed | statistically significant decrease in spontaneous activity | 888 | 216 | 4.98 | 675 | 4.2 | 5.28e-05 | 5 |  |  | 216 | 3.7 | 6.22 ± 2.3 10^−6 cm/s |
